Test results taken from patent US20210017295A1, “BISPECIFIC BINDING AGENTS AND USES THEREOF” (MEMORIAL SLOAN KETTERING CANCER CENTER, priority 2018, published 2021).

System: s.c. HER2(+) BT-474 tumors
Assay: Dosimetry calculations (estimated absorbed doses, therapeutic index)
Details: optimized anti-HER2-DOTA-PRIT, from 1.0-336 h biodistribution
Text: For each tissue, the non-decay-corrected time-activity concentration data were fit using Excel to a 1-component, 2-component, or more complex exponential function as appropriate, and analytically integrated to yield the cumulated activity concentration per unit administered activity (MBq-h/g per MBq). The ^177Lu equilibrium dose constant for non-penetrating radiations (8.49 g-cGy/MBq-h) was used to estimate the tumor-to-tumor and select organ-to-organ self-absorbed doses, assuming complete local absorption of the ^177Lu beta rays only, and ignoring the gamma ray and non-self dose contributions.

**Q.** Which “Estimated absorbed dose, Blood” value does the source give for `Nc1ccc(CC2CN(CC(=O)[O-])CCN(CC(=O)[O-])CCN(CC(=O)[O-])CCN2CC(=O)[O-])cc1.[177Lu+3]` (stereo not drawn) [^177Lu-DOTA-Bn] here?
**A.** Its value is 1.4 cGy/MBq.

**Q.** What about the “Estimated absorbed dose, Bone” value of the same molecule?
**A.** Its value is 0.7 cGy/MBq.

**Q.** What about the “Estimated absorbed dose, Heart” value of the same molecule?
**A.** The value was 0.4 cGy/MBq.

**Q.** What about the “Estimated absorbed dose, Kidneys” value of the same molecule?
**A.** Its value is 5.6 cGy/MBq.

**Q.** What about the “Estimated absorbed dose, Large Intestine” value of the same molecule?
**A.** The value was 0.8 cGy/MBq.

**Q.** What about the “Estimated absorbed dose, Liver” value of the same molecule?
**A.** The value was 3.3 cGy/MBq.

**Q.** What about the “Estimated absorbed dose, Lung” value of the same molecule?
**A.** The value was 1.3 cGy/MBq.

**Q.** What about the “Estimated absorbed dose, Muscle” value of the same molecule?
**A.** The value was 0.9 cGy/MBq.

**Q.** What about the “Estimated absorbed dose, Small Intestine” value of the same molecule?
**A.** The value was 0.4 cGy/MBq.

**Q.** And the “Estimated absorbed dose, Spleen” value?
**A.** The value was 0.3 cGy/MBq.

**Q.** And the “Estimated absorbed dose, Stomach” value?
**A.** The value was 0.3 cGy/MBq.

**Q.** And the “Estimated absorbed dose, Tumor” value?
**A.** The value was 39.9 cGy/MBq.
